From patent US20170240556A1, “BIFLUORODIOXALANE-AMINO-BENZIMIDAZOLE KINASE INHIBITORS FOR THE TREATMENT OF CANCER, AUTOIMMUNEINFLAMMATION AND CNS DISORDERS” (4SC DISCOVERY GMBH, priority 2012, published 2017) come the findings set out here.

The target of test [1] is Casein kinase 1 epsilon (CSKN1E) (Homo sapiens, UniProt P49674). The test can be described thus: Casein kinase assay, CK1 epsilon. Format: biochemical. The settings on record: recombinant CSKN1E 30 nM, ATP 10 μM. The protocol: The recombinant protein Casein kinase 1 delta (CSKN1D) was added to the substrate solution in a concentration of 5 nM and gently mixed. Dilution series in of compounds of the present invention in DMSO were added to the reaction mixture, followed after 20 min by addition of a mixture of ATP and ^33P-ATP (specific activity 0.01 μCi/μl final) to a final concentration of 10 μM. Reactions were carried out at 25° C. for 120 min, followed by spotting the reactions onto P81 ion exchange filter paper. Unbound phosphate was removed by washing of the filters in 0.75% phosphoric acid. […] IC50 values and curve fits were obtained using the program Prism® (Graph Pad Software).
Sequence of Casein kinase 1 epsilon (CSKN1E) (P49674 whole entry): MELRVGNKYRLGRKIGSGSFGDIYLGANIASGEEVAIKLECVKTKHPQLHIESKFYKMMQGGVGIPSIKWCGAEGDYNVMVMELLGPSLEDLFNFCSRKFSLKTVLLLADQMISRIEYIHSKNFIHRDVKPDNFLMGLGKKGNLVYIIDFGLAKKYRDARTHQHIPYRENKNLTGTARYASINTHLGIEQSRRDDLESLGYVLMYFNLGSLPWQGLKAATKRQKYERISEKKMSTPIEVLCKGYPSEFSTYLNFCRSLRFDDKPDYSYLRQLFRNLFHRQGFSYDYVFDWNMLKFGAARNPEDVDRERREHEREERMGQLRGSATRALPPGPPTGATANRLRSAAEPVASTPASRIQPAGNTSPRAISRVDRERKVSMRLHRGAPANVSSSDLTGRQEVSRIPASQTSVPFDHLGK
The above assay was also used to determine the inhibitory capacity of the compounds of the present invention on Casein Kinase 1 epsilon, wherein instead of CSKN1D, recombinant protein Casein kinase 1 epsilon (CSKN1E) was added to the substrate solution in a concentration of 30 nM and gently mixed.

In test [2] the target is Casein kinase 1 delta (CSKN1D) (Homo sapiens, UniProt P48730). The test can be described thus: Casein kinase assay, CK1 delta. The test is classed as biochemical. Particulars: recombinant CSKN1D 5 nM, ATP 10 μM.
Sequence of Casein kinase 1 delta (CSKN1D) (P48730 whole entry): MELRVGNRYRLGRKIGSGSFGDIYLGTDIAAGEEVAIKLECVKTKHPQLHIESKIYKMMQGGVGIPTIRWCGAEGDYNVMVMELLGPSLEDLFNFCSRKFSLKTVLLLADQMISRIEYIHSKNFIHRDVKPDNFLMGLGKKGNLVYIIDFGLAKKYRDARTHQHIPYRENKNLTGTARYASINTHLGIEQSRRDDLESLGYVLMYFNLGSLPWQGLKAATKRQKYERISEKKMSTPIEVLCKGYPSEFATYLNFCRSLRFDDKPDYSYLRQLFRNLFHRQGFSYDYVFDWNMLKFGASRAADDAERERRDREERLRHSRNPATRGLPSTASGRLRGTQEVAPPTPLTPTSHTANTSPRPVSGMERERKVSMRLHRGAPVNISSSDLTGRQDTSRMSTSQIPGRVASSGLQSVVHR

A word on the IC50: it is the concentration that inhibits the measured activity by half. With `Cc1occc1C(=O)Nc1nc2cc3c(cc2[nH]1)OC(F)(F)O3` [Compound 33, N-(2,2-difluoro-5H-[1,3]dioxolo[4′,5′:4,5]benzo[1,2-d]imidazol-6-yl)-2-methylfuran-3-carboxamide], the IC50 in test [1] was 0.2 to 1 µM; in test [2], less than 0.2 µM.
For the compound `Cc1cc(C(=O)Nc2nc3cc4c(cc3[nH]2)OC(F)(F)O4)c(C)o1` [Compound 34, N-(2,2-difluoro-5H-[1,3]dioxolo[4′,5′:4,5]benzo[1,2-d]imidazol-6-yl)-2,5-dimethylfuran-3-carboxamide], the IC50 in test [1] and in test [2] was more than 1 µM throughout.
Turning to `O=C(Nc1nc2cc3c(cc2[nH]1)OC(F)(F)O3)c1cocn1` [Compound 35, N-(2,2-difluoro-5H-[1,3]dioxolo[4′,5′:4,5]benzo[1,2-d]imidazol-6-yl)-oxazole-4-carboxamide], the 50% inhibitory concentration (IC50) is more than 1 µM in test [1] and 0.2 to 1 µM in test [2].
In the same order, the values of `O=C(Nc1nc2cc3c(cc2[nH]1)OC(F)(F)O3)c1nnn(-c2cccc(F)c2)c1C(F)(F)F` [Compound 36, N-(2,2-difluoro-5H-[1,3]dioxolo[4′,5′:4,5]benzo[1,2-d]imidazol-6-yl)-1-(3-fluorophenyl)-5-(trifluoromethyl)-1H-1,2,3-triazole-4-carboxamide] are more than 1 µM and 0.2 to 1 µM.
`O=C(Nc1nc2cc3c(cc2[nH]1)OC(F)(F)O3)c1csc(N2CCOCC2)n1` [Compound 37, N-(2,2-difluoro-5H-[1,3]dioxolo[4′,5′:4,5]benzo[1,2-d]imidazol-6-yl)-2-morpholinothiazole-4-carboxamide]: the IC50 in test [1] was 0.2 to 1 µM; in test [2], less than 0.2 µM.
Take `O=C(Nc1nc2cc3c(cc2[nH]1)OC(F)(F)O3)c1csc(-c2ccc3c(c2)CCO3)c1` [Compound 38, N-(2,2-difluoro-5H-[1,3]dioxolo[4′,5′:4,5]benzo[1,2-d]imidazol-6-yl)-5-(2,3-dihydrobenzofuran-5-yl)thiophene-3-carboxamide]: the IC50 was 0.2 to 1 µM in test [1] and less than 0.2 µM in test [2].
Consider `O=C(Nc1nc2cc3c(cc2[nH]1)OC(F)(F)O3)c1csc(-c2ccc3c(c2)OCO3)n1` [Compound 39, 2-(benzo[d][1,3]dioxol-5-yl)-N-(2,2-difluoro-5H-[1,3]dioxolo[4′,5′:4,5]benzo[1,2-d]imidazol-6-yl)thiazole-4-carboxamide], for which the IC50 was 0.2 to 1 µM in test [1] and more than 1 µM in test [2].
Consider `O=C(Nc1nc2cc3c(cc2[nH]1)OC(F)(F)O3)c1coc(-c2ccc3c(c2)CCO3)n1` [Compound 40, N-(2,2-difluoro-5H-[1,3]dioxolo[4′,5′:4,5]benzo[1,2-d]imidazol-6-yl)-2-(2,3-dihydrobenzofuan-5-yl)oxazole-4-carboxamide], for which the IC50 in test [1] and in test [2] was more than 1 µM in each case.
Consider `O=C(Nc1nc2cc3c(cc2[nH]1)OC(F)(F)O3)c1cccc(Cl)c1` [Compound 41, 3-chloro-N-(2,2-difluoro-5H-[1,3]dioxolo[4′,5′:4,5]benzo[1,2-d]imidazol-6-yl)benzamide], for which the IC50 in test [1] and in test [2] was less than 0.2 µM throughout.
For `Cc1nnsc1C(=O)Nc1nc2cc3c(cc2[nH]1)OC(F)(F)O3` [Compound 42, N-(2,2-difluoro-5H-[1,3]dioxolo[4′,5′:4,5]benzo[1,2-d]imidazol-6-yl)-4-methyl-1,2,3-thiadiazole-5-carboxamide], the IC50 in test [1] and in test [2] was more than 1 µM in each case.
For `O=C(Nc1nc2cc3c(cc2[nH]1)OC(F)(F)O3)c1ccc(Cl)cc1Cl` [Compound 43, 2,4-dichloro-N-(2,2-difluoro-5H-[1,3]dioxolo[4′,5′:4,5]benzo[1,2-d]imidazol-6-yl)benzamide], the IC50 in test [1] and in test [2] was 0.2 to 1 µM in each case.
Consider `O=C(Nc1nc2cc3c(cc2[nH]1)OC(F)(F)O3)c1cscn1` [Compound 44, N-(2,2-difluoro-5H-[1,3]dioxolo[4′,5′:4,5]benzo[1,2-d]imidazol-6-yl)thiazole-4-carboxamide], for which the concentration for half-maximal inhibition (IC50) in test [1] and in test [2] was 0.2 to 1 µM throughout.
`O=C(Nc1nc2cc3c(cc2[nH]1)OC(F)(F)O3)c1cccs1` [Compound 45, N-(2,2-difluoro-5H-[1,3]dioxolo[4′,5′:4,5]benzo[1,2-d]imidazol-6-yl)thiophene-2-carboxamide]: the IC50 in test [1] and in test [2] was 0.2 to 1 µM in each case.
Consider `COc1ccc(C(=O)Nc2nc3cc4c(cc3[nH]2)OC(F)(F)O4)cc1` [Compound 46, N-(2,2-difluoro-5H-[1,3]dioxolo[4′,5′:4,5]benzo[1,2-d]imidazol-6-yl)-4-methoxybenzamide], for which the half-maximal inhibitory concentration (IC50) in test [1] and in test [2] was 0.2 to 1 µM throughout.
For `O=C(Nc1nc2cc3c(cc2[nH]1)OC(F)(F)O3)c1ccccc1OC(F)(F)F` [Compound 47, N-(2,2-difluoro-5H-[1,3]dioxolo[4′,5′:4,5]benzo[1,2-d]imidazol-6-yl)-2-(trifluoromethoxy)benzamide], the values for the IC50 in test [1] and in test [2] were more than 1 µM and 0.2 to 1 µM, respectively.
Regarding `O=C(Nc1nc2cc3c(cc2[nH]1)OC(F)(F)O3)c1cnc(NC(=O)c2ccccc2OC(F)(F)F)o1` [Compound 48, N-(2,2-difluoro-5H-[1,3]dioxolo[4′,5′:4,5]benzo[1,2-d]imidazol-6-yl)-2-(2-(trifluoromethoxy)benzamido)oxazole-5-carboxamide], the IC50 was 0.2 to 1 µM in test [1] and less than 0.2 µM in test [2].
In the same order, the values of `O=C(Nc1nc2cc3c(cc2[nH]1)OC(F)(F)O3)c1ccccc1` [Compound 49, N-(2,2-difluoro-5H-[1,3]dioxolo[4′,5′:4,5]benzo[1,2-d]imidazol-6-yl)benzamide] are less than 0.2 µM and less than 0.2 µM.
In the same order, the values of `O=C(Nc1nc2cc3c(cc2[nH]1)OC(F)(F)O3)c1nc(NC(=O)c2ccc(Cl)cc2Cl)n[nH]1` [Compound 51, 3-(2,4-dichlorobenzamido)-N-(2,2-difluoro-5H-[1,3]dioxolo[4′,5′:4,5]benzo[1,2-d]imidazol-6-yl)-1H-1,2,4-triazole-5-carboxamide] are 0.2 to 1 µM and less than 0.2 µM.
The corresponding values for `O=C(Nc1nc2cc3c(cc2[nH]1)OC(F)(F)O3)c1nc(NC(=O)c2ccccc2OC(F)(F)F)n[nH]1` [Compound 52, N-(2,2-difluoro-5H-[1,3]dioxolo[4′,5′:4,5]benzo[1,2-d]imidazol-6-yl)-3-(2-(trifluoromethoxy)benzamido)-1H-1,2,4-triazole-5-carboxamide] are 0.2 to 1 µM and less than 0.2 µM.
With `O=C(Nc1nc2cc3c(cc2[nH]1)OC(F)(F)O3)c1c(F)cccc1F` [Compound 54, N-(2,2-difluoro-5H-[1,3]dioxolo[4′,5′:4,5]benzo[1,2-d]imidazol-6-yl)-2,6-difluorobenzamide], the values for the IC50 in test [1] and in test [2] were more than 1 µM and 0.2 to 1 µM, respectively.
Consider `O=C(Nc1nc2cc3c(cc2[nH]1)OC(F)(F)O3)c1csc(Br)n1` [Compound 55, 2-bromo-N-(2,2-difluoro-5H-[1,3]dioxolo[4′,5′:4,5]benzo[1,2-d]imidazol-6-yl)thiazole-4-carboxamide], for which the IC50 in test [1] and in test [2] was 0.2 to 1 µM each time.
As to `O=C(Nc1nc(C(=O)Nc2nc3cc4c(cc3[nH]2)OC(F)(F)O4)ns1)c1cccc(Cl)c1` [Compound 57], the IC50 in test [1] and in test [2] was less than 0.2 µM in each case.
In the case of `O=C(Nc1n[nH]c(C(=O)Nc2nc3cc4c(cc3[nH]2)OC(F)(F)O4)n1)c1ccc([N+](=O)[O-])cc1` [Compound 61, N-(2,2-difluoro-5H-[1,3]dioxolo[4′,5′:4,5]benzo[1,2-d]imidazol-6-yl)-3-(4-nitrobenzamido)-1H-1,2,4-triazole-5-carboxamide], the concentration for half-maximal inhibition (IC50) in test [1] and in test [2] was more than 1 µM in each case.
For the compound `Cc1ccccc1C(=O)Nc1nc2cc3c(cc2[nH]1)OC(F)(F)O3` [Compound 68, N-(2,2-difluoro-5H-[1,3]dioxolo[4′,5′:4,5]benzo[1,2-d]imidazol-6-yl)-2-methylbenzamide], the figures for the IC50 in test [1] and in test [2] were more than 1 µM and 0.2 to 1 µM, respectively.
For `COc1ccc(C(=O)Nc2nc(C(=O)Nc3nc4cc5c(cc4[nH]3)OC(F)(F)O5)cs2)cc1` [Compound 69, N-(2,2-difluoro-5H-[1,3]dioxolo[4′,5′:4,5]benzo[1,2-d]imidazol-6-yl)-2-(4-methoxybenzamido)thiazole-4-carboxamide], the IC50 was 0.2 to 1 µM in test [1] and less than 0.2 µM in test [2].
The corresponding values for `Nc1sccc1C(=O)Nc1nc2cc3c(cc2[nH]1)OC(F)(F)O3` [Compound 79, 2-amino-N-(2,2-difluoro-5H-[1,3]dioxolo[4′,5′:4,5]benzo[1,2-d]imidazol-6-yl)thiophene-3-carboxamide] are 0.2 to 1 µM and 0.2 to 1 µM.
In the same order, the values of `NS(=O)(=O)c1cc(C(=O)Nc2nc3cc4c(cc3[nH]2)OC(F)(F)O4)cs1` [Compound 83, N-(2,2-difluoro-5H-[1,3]dioxolo[4′,5′:4,5]benzo[1,2-d]imidazol-6-yl)-5-sulfamoylthiophene-3-carboxamide] are less than 0.2 µM and less than 0.2 µM.
`O=C(Nc1nc2cc3c(cc2[nH]1)OC(F)(F)O3)c1ncn[nH]1` [Compound 84, N-(2,2-difluoro-5H-[1,3]dioxolo[4′,5′:4,5]benzo[1,2-d]imidazol-6-yl)-1H-1,2,4-triazole-3-carboxamide]: the IC50 in test [1] and in test [2] was more than 1 µM throughout.
